From US10208074B2, “Pyrazole compounds and method for making and using the compounds” (Rigel Pharmaceuticals, Inc., priority 2015, dated 2019)
Structures can show the parent of a compound that is named as a salt. Where two headings read alike, the source gives them in different places.

Tests used:
IL-23 (p19/p40) = test: IL23-p19 ELISA, Dendritic, LPS (compound screening using DC cells); format: cell-based, Human; conditions: PBMC-derived DC cells, IFNγ primed, LPS 1 μg/ml, 18 hours, 10 pt, read-out: IL23-p19 ELISA, Dendritic, LPS, 10 pt, EC50
In short: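 Human PBMC-derived dendritic cells (7 d GM-CSF 100 ng/ml + IL-4 20 ng/ml), primed 24 h with IFNγ 50 ng/ml, pre-incubated 1 h with compound, then stimulated 18 h with LPS 1 μg/ml. Supernatant IL-23 measured by p19-capture/p40-detection chemiluminescent ELISA; CellTiter Glo checks cytotoxicity.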

IL-23p19 = test: LPS induced IL23p19 in THP-1 cells (with IFNγ primed) assay; format: cell-based, Human; conditions: THP-1 cells, IFNγ primed, LPS 1 ug/mL, 18 hours, 10 pt, read-out: IL23-p19 ELISA, THP1-IFNy, LPS, 10 pt EC50
In short: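 THP-1 cells primed ~18 h with IFNγ (50 ng/mL), pre-incubated 1 h with compound at 37 °C, then stimulated 18 h with LPS (1 ug/mL final). Supernatant IL-23p19 measured by sandwich ELISA with chemiluminescent read-out; EC50 from curve fitting. Toxicity checked on the remaining cells by Cell Titer Glo.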

| Compound | EC50 (IL-23 (p19/p40); Homo sapiens, 18 h) [nM] | EC50 (IL-23p19; Homo sapiens, THP-1, 18 h) [nM] | also measured |
| --- | --- | --- | --- |
| CCO[C@H]1C[C@@H](n2cc(NC(=O)c3csc(-c4cn[nH]c4)n3)c(-c3cccc(F)n3)n2)C1 [II-160, N-(1-((cis)-3-ethoxycyclobutyl)-3-(6-fluoropyridin-2-yl)-1H-pyrazol-4-yl)-2-(1H-pyrazol-4-yl)thiazole-4-carboxamide] | 38.5 | 26.7 | – |
| COCCn1cc(NC(=O)c2ccc(-c3cnn(C(=O)OC(C)OC(=O)C(C)C)c3)o2)c(-c2ccccn2)n1 (centres unmarked) [Compound I-19, 1-(isobutyryloxy)ethyl 4-(5-((1-(2-methoxyethyl)-3-(pyridin-2-yl)-1H-pyrazol-4-yl)carbamoyl)furan-2-yl)-1H-pyrazole-1-carboxylate] | 337 | 300 | – |
| Cc1n[nH]cc1-c1nc(C(=O)Nc2cn(CC(F)(F)F)nc2-c2ccccn2)cs1 [II-100, 2-(3-methyl-1H-pyrazol-4-yl)-N-(3-(pyridin-2-yl)-1-(2,2,2-trifluoroethyl)-1H-pyrazol-4-yl)thiazole-4-carboxamide] | 226 | 56.1 | – |
| O=C(Nc1cn([C@H]2CC[C@@H](O)C2)nc1-c1ccccn1)c1ccc(-c2cn[nH]c2)o1 [Compound I-134, N-(1-((1S,3R)-3-hydroxycyclopentyl)-3-(pyridin-2-yl)-1H-pyrazol-4-yl)-5-(1H-pyrazol-4-yl)furan-2-carboxamide formate] | 91 | 29.6 | – |
| O=C(Nc1cn([C@H]2C[C@@H](OCCF)C2)nc1-c1ccccn1)c1csc(-c2cn[nH]c2)n1 [II-130, N-(1-((1s,3s)-3-(2-fluoroethoxy)cyclobutyl)-3-(pyridin-2-yl)-1H-pyrazol-4-yl)-2-(1H-pyrazol-4-yl)thiazole-4-carboxamide] | 89.8 | 56 | – |
| O=C(Nc1cn(C2CCC2)nc1-c1ccccn1)c1csc(-c2cn[nH]c2)n1 [II-121, N-(1-cyclobutyl-3-(pyridin-2-yl)-1H-pyrazol-4-yl)-2-(1H-pyrazol-4-yl)thiazole-4-carboxamide] | 44.4 | 98.6 | – |
| CCO[C@H]1C[C@@H](n2cc(NC(=O)c3csc(-c4cnn(C)c4)n3)c(-c3ccccn3)n2)C1 [II-13, N-(1-((1,3-cis)-3-ethoxycyclobutyl)-3-(pyridin-2-yl)-1H-pyrazol-4-yl)-2-(1-methyl-1H-pyrazol-4-yl)thiazole-4-carboxamide] | 10400 | 4800 | – |
| [2H]C([2H])([2H])C([2H])([2H])O[C@H]1C[C@@H](n2cc(NC(=O)c3csc(-c4cn[nH]c4)n3)c(-c3ccccn3)n2)C1 [II-127, N-(1-((1s,3s)-3-(ethoxy-d5)cyclobutyl)-3-(pyridin-2-yl)-1H-pyrazol-4-yl)-2-(1H-pyrazol-4-yl)thiazole-4-carboxamide] | 81 | 48.7 | – |
| CN1CC(n2cc(NC(=O)c3ccc(-c4cn[nH]c4)o3)c(-c3ccccn3)n2)C1 [Compound I-101, N-{1-(1-Methylazetidin-3-yl)-3-(pyridine-2-yl)-1H-pyrazol-4-yl}-5-(1H-pyrazol-4-yl)furan-2-carboxamide, formate salt] | 50.1 | 14.3 | – |
| COCCOCCn1cc(NC(=O)c2ccc(-c3cn[nH]c3)o2)c(-c2ccccn2)n1 [Compound I-16, N-(1-(2-(2-methoxyethoxy)ethyl)-3-(pyridin-2-yl)-1H-pyrazol-4-yl)-5-(1H-pyrazol-4-yl)furan-2-carboxamide] | 403 | – | EC50 (IL-23p19): 125 nM |
| CCOCCn1cc(NC(=O)c2ccc(-c3cnn(COP(=O)(O)O)c3)o2)c(-c2ccccn2)n1 [Compound I-54, (4-(5-((1-(2-ethoxyethyl)-3-(pyridin-2-yl)-1H-pyrazol-4-yl)carbamoyl)furan-2-yl)-1H-pyrazol-1-yl)methyl dihydrogen phosphate] | 1580 | 617 | – |
| O=C(Nc1cn(C(=O)N2CCOCC2)nc1-c1ccccn1)c1csc(-c2cn[nH]c2)n1 [II-131, N-(1-(morpholine-4-carbonyl)-3-(pyridin-2-yl)-1H-pyrazol-4-yl)-2-(1H-pyrazol-4-yl)thiazole-4-carboxamide formate] | 9360 | – | EC50 (IL-23p19; formate): 360 nM |
| Cc1n[nH]cc1-c1nc(C(=O)Nc2cn(C)nc2-c2ccccn2)cs1 [II-27, 2-(3-methyl-1H-pyrazol-4-yl)-N-(1-methyl-3-(pyridin-2-yl)-1H-pyrazol-4-yl)thiazole-4-carboxamide] | 331 | 74.1 | – |
| O=C(Nc1cn(C2CCC2)nc1-c1ccccn1)c1coc(-c2cn[nH]c2)n1 [III-5, N-(1-cyclobutyl-3-(pyridin-2-yl)-1H-pyrazol-4-yl)-2-(1H-pyrazol-4-yl)oxazole-4-carboxamide] | 71 | 270 | – |
| O=C(Nc1cn(CCN2CCOCC2)nc1-c1ccccn1)c1csc(-c2cn[nH]c2)n1 [II-60, N-(1-(2-morpholinoethyl)-3-(pyridin-2-yl)-1H-pyrazol-4-yl)-2-(1H-pyrazol-4-yl)thiazole-4-carboxamide] | 53.3 | 47.3 | – |
| CCOCCn1cc(NC(=O)c2csc(-c3cn[nH]c3C(F)(F)F)n2)c(-c2ccccn2)n1 [II-19, N-(1-(2-ethoxyethyl)-3-(pyridin-2-yl)-1H-pyrazol-4-yl)-2-(5-(trifluoromethyl)-1H-pyrazol-4-yl)thiazole-4-carboxamide, formic acid salt] | 3510 | 4010 | – |
| CCO[C@H]1C[C@@H](n2cc(NC(=O)c3csc(-c4cnn(COP(=O)(O)O)c4)n3)c(-c3ncccc3F)n2)C1 [II-163, (4-(4-((1-((cis)-3-ethoxycyclobutyl)-3-(3-fluoropyridin-2-yl)-1H-pyrazol-4-yl)carbamoyl)thiazol-2-yl)-1H-pyrazol-1-yl)methyl dihydrogen phosphate] | – | 109 | EC50 (IL-23 (p19/p40)): 348 nM |
| O=C(Nc1cn(CC(F)(F)F)nc1-c1ccccn1)c1csc(-c2cn[nH]c2)n1 [II-94, 2-(1H-pyrazol-4-yl)-N-(3-(pyridin-2-yl)-1-(2,2,2-trifluoroethyl)-1H-pyrazol-4-yl)thiazole-4-carboxamide] | 33.3 | 311 | – |
| CC(C)[C@H](NC(=O)OC(C)(C)C)C(=O)n1cc(-c2nc(C(=O)Nc3cn(C)nc3-c3ccccn3)cs2)cn1 [II-3, tert-butyl (S)-(3-methyl-1-(4-(4-((1-methyl-3-(pyridin-2-yl)-1H-pyrazol-4-yl)carbamoyl)thiazol-2-yl)-1H-pyrazol-1-yl)-1-oxobutan-2-yl)carbamate] | 371 | 198 | – |
| CCO[C@H]1C[C@@H](n2cc(NC(=O)c3csc(-c4cn[nH]c4)n3)c(-c3nc(F)ccc3F)n2)C1 [II-174, N-(3-(3,6-difluoropyridin-2-yl)-1-((cis)-3-ethoxycyclobutyl)-1H-pyrazol-4-yl)-2-(1H-pyrazol-4-yl)thiazole-4-carboxamide] | 70.8 | 82.1 | – |
| Cn1cc(NC(=O)c2csc(-c3cnn(COP(=O)(O)O)c3)n2)c(-c2ccccn2)n1 [II-36, Sodium (4-(4-((1-methyl-3-(pyridin-2-yl)-1H-pyrazol-4-yl)carbamoyl)thiazol-2-yl)-1H-pyrazol-1-yl)methyl phosphate] | – | – | EC50 (IL-23 (p19/p40); phosphate): 241 nM; EC50 (IL-23p19; phosphate): 165 nM |
| CCO[C@H]1C[C@@H](n2cc(NC(=O)c3ccc(-c4cnn(COP(=O)(O)O)c4)o3)c(-c3ccccn3)n2)C1 [Compound I-35, (4-(5-((1-((1,3-cis)-3-ethoxycyclobutyl)-3-(pyridin-2-yl)-1H-pyrazol-4-yl)carbamoyl)furan-2-yl)-1H-pyrazol-1-yl)methyl phosphate bis-sodium salt] | 520 | 63.3 | – |
